Measurements taken from article PMC11491004, “CHF6523 data suggest that the phosphoinositide 3-kinase delta isoform is not a suitable target for the management of COPD” (Respiratory Research, 2024).

Key:
[1] = COPD Assessment Test and rescue medication use; assay type: in vivo, human
Method: (§1) All assessment timings were based on the morning dose. Pre-dose on Days 1 and 28 of each treatment period, blood samples were taken for pharmacokinetic analyses, followed by forced oscillation (including slow vital capacity manoeuvres for inspiratory capacity [IC] and vital capacity [VC]), spirometry (forced expiratory volume in 1 s [FEV1] and forced vital capacity [FVC]), and the COPD Assessment Test (CAT). Blood samples were also taken up to 12 h post-dose on Days 1 and 28 for pharmacokinetic analyses, with blood samples for biomarker assessment pre-dose on Day 1 and 2 h post-dose on Day 28, and spirometry pre-dose on Days 20 and 24. Sputum was induced prior to each treatment period for baseline determination of biomarkers, and post-dose on Day 20 for collection of phosphatidylinositol (3,4,5)-trisphosphate (PIP3), and on Days 24 and 28 for collection of biomarkers.
Fold-change from baseline in cell counts, target biomarkers in sputum and blood, and PIP3 were log-transformed and analysed using an analysis of covariance (ANCOVA) model, with treatment, patient, and period as fixed effects, and baseline value as covariate. Changes from baseline in spirometry, forced oscillation and CAT endpoints were analysed using a similar ANCOVA model, but without log transformation. Rescue medication data were analysed using an analysis of variance model, including treatment, period and patient as fixed effects. Other data, including the proportion of days on which patients coughed and the cough VAS results, are presented descriptively only. Further details, including the transcriptomics, mass-spectrometry and Olink proteomics, bioinformatics and multi-omic data integration are in the supplement.

[2] = tested on: eosinophilic/type-2 inflammation; details: series of preclinical studies in rat or mouse models of airway inflammation; cited from earlier work
[3] = in vivo
Method: Safety and tolerability were evaluated throughout the study in terms of the occurrence of adverse events, blood chemistry, haematology and urinalysis, vital signs, and 12-lead electrocardiograms. […] Throughout the study, patients were permitted to use salbutamol as rescue medication, but not within 6 h prior to any spirometry assessment – any rescue medication intake was also captured in the daily diary.
The safety set, used in the analysis of all safety variables, was all randomised patients who received at least one dose of study drug. […] Given the cross-over design, the inclusion of patients in the analysis sets was defined on a per-period basis.

[4] = CHF6523 plasma pharmacokinetics in patients with COPD; assay type: in vivo, human; details: for AUC0–30 min / AUC0–12 h / Cmax: 2 mg twice daily inhaled
Method: as §1
Pharmacokinetic assessments were performed under fasting conditions. On days when pharmacokinetic samples were taken, study drug was administered in the morning at the clinical site after a fast of ≥ 10 h (water was allowed), with food or fluid intake not allowed until 1 h post-dose, with the exception of 100 mL of water if the patient coughed as a result of inhalation. Starting from 1 h post-dose and for the following 6 h, patients drank ≥ 240 mL of water every 2 h, with breakfast and lunch served approximately 3 and 5 h after morning study drug, and, on Day 1, dinner at least 2 h before or 1 h after evening drug administration. No intake of alcohol, grapefruit, or xanthine/caffeine containing beverages or food was allowed from 48 h prior to each intake of study medication and until the last visit procedure, with strenuous exercise prohibited for 24 h before any spirometry measurement.
Blood samples of 2 mL were collected in K2-EDTA tubes at pre-dose and at 10, 15, 30, and 45 min and 1, 1½, 2, 3, 4, 6, 8 and 12 h post-dose on Days 1 and 28, and pre-dose on Days 20 and 24. Collected samples were centrifuged within 1 h after blood in a refrigerated centrifuge (at about +4°C) at about 2000 x g for 10 min. The plasma obtained was transferred into two polypropylene tubes (at least 500 μL into the first, and the remaining volume into the second), then stored at or below –80°C, at the clinical centre. The tubes were then transferred (frozen) to a central laboratory, and stored at –80°C until submitted for analysis with a validated liquid chromatography with tandem mass spectrometry (LC/MS-MS) method. Two validated methods were used to cover the range of possible concentrations. The first one, the so-called low-range method, measured CHF6523 over the calibration range 0.02–1.00 ng/mL. The second, the high-range method, measured CHF6523 over the calibration range 1.00–50.0 ng/mL. Overall, the lower limit of quantification in this study (LLoQ) was of 0.02 ng/mL.

SMILES: C[C@@H](c1oc(=O)c2ccccc2c1-c1cccc(CN2CCN(C)CC2)c1)n1nc(-c2cncc(O)c2)c2c(N)ncnc21 [CHF6523]
- Rescue medication use, adjusted mean (95% CI) ([1]; 28-day treatment period): 1.69 (1.40, 1.99) Puffs/day
- Rescue medication use, adjusted mean difference CHF6523 vs placebo (95% CI) ([1]; 28-day treatment period): 0.28 (–0.14, 0.70); p=0.190 Puffs/day
- Rescue medication use: days with no use, adjusted mean (95% CI) ([1]; 28-day treatment period): 49.0 (40.3, 57.7) %
- Rescue medication use: days with no use, adjusted mean difference CHF6523 vs placebo (95% CI) ([1]; 28-day treatment period): –5.7 (–17.9, 6.6); p=0.354%
- COPD Assessment Test total score, adjusted mean difference CHF6523 vs placebo (95% CI) ([1]; Day 28): 0.6 (–0.7, 2.0); p=0.340
- Inhibition of eosinophilic/type-2 inflammation [2]: potent inhibition of eosinophilic/type-2 inflammation comparable to that of nemiralisib
- Adverse events leading to study discontinuation [3]: 6 (14.3%) Patients (%)
- Adverse events leading to study discontinuation: Cough [3]: 5 (11.9%) Patients (%)
- Adverse events: Abnormal product taste [3]: 14 (33.3%) Patients (%)
- Adverse events: COPD exacerbation [3]: 4 (9.5%) Patients (%)
- Adverse events: Chest discomfort [3]: 9 (21.4%) Patients (%)
- Adverse events: Dyspnoea [3]: 9 (21.4%) Patients (%)
- Adverse events: Headache [3]: 5 (11.9%) Patients (%)
- Adverse events: Increased sputum [3]: 5 (11.9%) Patients (%)
- CHF6523–placebo differences in the other safety evaluations [3]: no clinically relevant
- Serious adverse events [3]: 2 (4.8%) Patients (%)
- Serious treatment-related adverse events [3]: 0 Patients (%)
- Severe adverse events [3]: 11 (26.2%) Patients (%)
- Severe adverse events: Cough [3]: 7 (16.7%) Patients (%)
- Treatment-related adverse events [3]: 40 (95.2%) Patients (%)
- Treatment-related adverse events: Chest discomfort [3]: 9 (21.4%) Patients (%)
- Treatment-related adverse events: Cough [3]: 40 (95.2%) Patients (%)
- Treatment-related adverse events: Dyspnoea [3]: 9 (21.4%) Patients (%)
- Treatment-related adverse events: Headache [3]: 3 (7.1%) Patients (%)
- Treatment-related adverse events: Increased sputum [3]: 5 (11.9%) Patients (%)
- Treatment-related adverse events: Product taste abnormal [3]: 14 (33.3%) Patients (%)
- Time of peak of mean plasma concentration ([4]; Day 1): 15 min
- median tmax ([4]; Day 1): 15 min
- median tmax ([4]; Day 28): 11 min
- Time of peak of mean plasma concentration ([4]; Day 28 (first post-dose timepoint)): 10 min
- AUC0–30 min ([4]; plasma, Day 1, mean (SD)): 3.28 (1.64) ng.h/mL
- AUC0–12 h ([4]; plasma, Day 1, mean (SD)): 8.10 (4.11) ng.h/mL
- Cmax ([4]; plasma, Day 1, mean (SD)): 9.10 (4.42) ng/mL
- tmax ([4]; plasma, Day 1, median (range)): 0.25 (0.15–2.00) h
- Ctrough ([4]; plasma, Day 20 pre-dose, mean (SD)): 0.10 (0.05) ng/mL
- Ctrough ([4]; plasma, Day 24 pre-dose, mean (SD)): 0.09 (0.06) ng/mL
- AUC0–30 min ([4]; plasma, Day 28, mean (SD)): 4.21 (2.05) ng.h/mL
- AUC0–12 h ([4]; plasma, Day 28, mean (SD)): 10.50 (5.32) ng.h/mL
- Cmax ([4]; plasma, Day 28, mean (SD)): 11.70 (5.54) ng/mL
- CL/Fss (apparent total body clearance at steady state) ([4]; plasma, Day 28, dose/AUC 0-12 h, mean (SD)): 239 (119) L/h
- Cav ([4]; plasma, Day 28, mean (SD)): 0.88 (0.45) ng/mL
- Cmin ([4]; plasma, Day 28, mean (SD)): 0.09 (0.03) ng/mL
- tmax ([4]; plasma, Day 28, median (range)): 0.18 (0.15–0.27) h
- tmin ([4]; plasma, Day 28, median (range)): 11.92 (8.13–12.17) h
- Ctrough ([4]; plasma, Day 28 pre-dose, mean (SD)): 0.09 (0.06) ng/mL
